# Test results reported in patent publication US20260373103A1, “COMPOSITIONS AND METHODS FOR PREVENTING CARDIOMYOPATHY” (OHIO STATE INNOVATION FOUNDATION, priority 2022, published 2026).
# “Also recorded” adds a separate entry of the source.
# What was measured:
# [1] = test system: TOM20; assay: TOM20 ubiquitination and TOM20 protein level after A/O, western blot; type: cell-based
# Experimental: (§1) HeLa cells and mouse embryonic fibroblasts (MEFs) were grown in Dulbecco's minimum essential medium (DMEM) with 10% fetal bovine serum (FBS) supplemented with penicillin-streptomycin. HeLa Parkin, PINK1 KO cells, WT and MFN2 KO cells were previously described. Cells stably expressing USP30 were generated using lentiviral vectors of pLVX-Puro-Myc-USP30. The USP30 plasmid was obtained from Addgene. The plasmid was transferred into a lentiviral vector and viral particles were prepared by transiently transfecting HEK293T using standard methods. For the drug treatment experiments, cells were incubated in medium containing a mixture of 5 μM oligomycin and 5 μM antimycin A (A/O; see figures for treatment times). In 18 h treatment, A/O were used in combination with 10 μM quinolyl-valyl-O-methylaspartyl-[−2,6-difluorophenoxy]-methyl ketone (QVD), a broad-spectrum caspase inhibitor. ST51000539 (ST-539) was purchased from Tim Tec, Inc. Other chemicals were from Sigma-Aldrich (St. Louis, MO, USA). For FACS analysis, cells stably expressing mt-Keima were incubated in medium containing a mixture of 1 AM oligomycin and 1 AM antimycin A for 1.5 h. Prior to A/O treatment, cultures were treated with DMSO or ST-539 at 3 μg/ml. Cells were trypsinized, washed once with PBS buffer and then resuspended into 500 μl of PBS prior to analysis using a BD Fortessa flow cytometer as previously described.
# Cells were lysed in RIPA buffer (50 mM Tris-HCl, at pH 8.0; 150 mM NaCl; 1% (vol/vol) Nonidet P-40; 0.5% sodium deoxycholate, 0.1% SDS and protease inhibitor cocktail (Roche)) on ice. Primary antibodies were used at the following concentrations: USP30 (Santa Cruz, sc-515235, 1:200); TOM20 (Cell Signaling Technology, 42406S, 1:1000); TOM40 (Proteintech, 18409-1-AP, 1:1000); NDP52 (Cell Signaling Technology, 60732S, 1:1000); TIM23 (Proteintech, 11123-1-AP, 1:500); LC3A/B (Cell Signaling Technology, 4108S, 1:1000); GAPDH (Cell Signaling Technology, 5175S, 1:1000); PINK1 (Cell Signaling Technology, 6946S, 1:1000); ACTIN (Cell Signaling Technology, 3700S, 1:1000). The membranes were incubated with anti-rabbit (LI-COR, 926-32211, 1:15000) or anti-mouse (LI-COR, 926-68072, 1:15000) IgG secondary antibodies for 1 h at room temperature. Images were captured using the Odyssey system (LI-Cor). One representative blot is shown of three independent experiments.
# The enzymatic activity of Parkin is to function as an E3 ubiquitin ligase. […] To investigate TOM20 ubiquitination during mitophagy, we treated HeLa cells stably expressing YFP-Parkin (Hela-Parkin) for up to 18 h with both the mitochondrial complex III inhibitor antimycin A and the ATP synthase inhibitor oligomycin (antimycin A/oligomycin/[A/O]; FIG. 1A). […] A/O treatment also results in a decline in the abundance of the OMM protein TOM40 and the inner mitochondrial protein TIM23 (FIG. 1A). […] In this context, increased expression of USP30 blocked the accumulation of ubiquitinated TOM20 and prevented the destruction of this outer mitochondrial protein, as well as TOM40 and TIM23, after A/O treatment (FIG. 1A). We then employed this cellular assay to monitor TOM20 turnover, and analyzed compounds known to be associated with the ubiquitination process for inhibitors of USP30. […] We defined the effects of this chemical using biochemical assays. […] Initially to assess mitophagy in cells, we monitored the degradation of the inner membrane protein, the translocase of the inner membrane 23 (TIM23), by immunoblotting (FIG. 5A). […] USP30's overexpression prevented a reduction in TIM23 and TOM40 levels.
# Genetic suppression of USP30 in Parkin-overexpressing cells promotes the clearance of mitochondria in response to mitochondrial depolarizing agents. […]
# [2] = test system: HeLa-Parkin cells and HeLa-Parkin cells that express USP30; assay: Mitophagy in cells by mt-Keima fluorescence FACS; type: cell-based
# Experimental: as §1, with “For FACS analysis, cells stably expressing mt-Keima were incubated in medium containing a mixture of 1 AM oligomycin and 1 AM antimycin A for 1.5 h. Prior to A/O treatment, cultures were treated with DMSO or ST-539 at 3 μg/ml. Cells were trypsinized, washed once with PBS buffer and then resuspended into 500 μl of PBS prior to analysis using a BD Fortessa flow cytometer as previously described.” left out
# We employed a sensitive fluorescence-activated cell sorting (FACS)-based method for detecting mitophagy using the pH-dependent fluorescent protein Keima. […] We exploited the mt-Keima probe and measured mitophagy in HeLa-Parkin cells and HeLa-Parkin cells that express USP30. […]
# [3] = test system: HeLa-Parkin or HeLa-Parkin/USP30 cells; assay: Mitochondrial membrane potential (TMRM signal); type: cell-based; details: ST-539 3 to 10 μg/ml
# Experimental: ΔΨm was measured using a fluorescence microplate reader (BioTek Instruments) in cells preincubated with Tetramethylrhodamine methyl ester (TMRM, Thermo Scientific) following manufacturer's instructions. Cells were washed in PBS before resuspension in Hank's balanced salt solution (HBSS; 156 mM NaCl, 3 mM KCl, 2 mM MgSO4, 1.25 mM KH2PO4, 2 mM CaCl2), 10 mM glucose and 10 mM HEPES; pH adjusted to 7.35 with NaOH) (1.0×10^6 cells/ml) containing 50 nM TMRM. For each individual experiment, average TMRM fluorescence was normalized to control cells.
# We initially analyzed mitochondrial function using Tetramethylrhodamine (TMRM), a dye requiring mitochondrial membrane potential to accumulate within the mitochondria.
# [4] = test system: Mfn2^−/− MEF cells; assay: Mitochondrial morphology, confocal imaging; type: cell-based, mouse; details: 3 or 10 μg/ml ST-539, 24 h
# Experimental: as §1
# [5] = test system: wild type MEFs; assay: Mitochondrial morphology, confocal imaging; type: cell-based, mouse; details: ST-539 3 or 10 μg/ml, 24 h
# Experimental: as §1
# [6] = test system: mt-Keima mice; assay: Echocardiographic analysis; type: in vivo, mouse; details: 25 mg/kg/day i.p. for 5 days, vs vehicle
# Experimental: (§2) The mt-Keima mouse. ST-539 was dissolved into 1% DMSO in Sesame oil and injected intraperitoneally (i.p.) at doses of 25 mg/kg/day with five total doses. Both male and female mice were used in this study. The control group received vehicle only. Echocardiographic measurements were taken using a Vevo3100 Visual Sonics (Visual Sonics) system. The mice were lightly anesthetized with isoflurane and the ejection fraction, fractional shortening, and ventricular chamber dimensions were determined using 2-D-guided M mode images. Ejection fraction, fractional shortening, ventricular chamber dimensions, and left ventricular mass were calculated automatically using the VevoLAB program. All experiments involving animals were approved by the Institutional Animal Care and Use Committee at The Ohio State University.
# [7] = test system: mice; assay: Safety / tolerability in mice; type: in vivo; details: 25 mg/kg/day i.p. for 5 days
# Experimental: as §2
# [8] = test system: Human induced pluripotent stem cell-derived cardiomyocytes; assay: Doxorubicin-induced cell death in hiPSC-CMs; type: cell-based; details: 48 hours, doxorubicin+ST-539
# [9] = ST-539 10 μg/ml, with A/O, presence of USP30
structure (smiles),measurement,setting,value
CC(C)(C)NS(=O)(=O)c1cccc2c(NC(=O)C(Cc3ccccc3)NC(=O)c3ccccc3)cccc12 (stereo not shown) [ST-539],TOM20 ubiquitination and decline in TOM20 level on addition of ST-539,"[1]; A/O plus ST-539 1 or 3 μg/ml, cells expressing both ectopic Parkin and endogenous PINK1",further potentiated
same,correlation of TOM20 ubiquitination with ST-539 dosage,[1]; A/O treatment,A close correlation exists
same,reduction in TOM20 level relative to vehicle treated cells,"[1]; Parkin positive cells, A/O 18 h, ST-539 3 μg/ml, not in WT HeLa or PINK1 KO cells",more significant reduction
same,TOM20 ubiquitination,[1]; [9],caused a ubiquitinated TOM20
same,loss of TOM20 protein level,[1]; [9],~ 90%
same,TOM20 ubiquitination independent of functional PINK1/Parkin pathway,"[1]; long term treatment (18 h), ST-539 3 μg/ml",did not promote TOM20 ubiquitination
same,A/O induced mitophagy (mt-Keima FACS),"[2]; ST-539 3 μg/ml, HeLa-Parkin cells expressing USP30",restored A/O induced mitophagy
same,mitophagy in the absence of mitochondrial stress,"[2]; cellular studies, ST-539, no stress",minimal change in mitophagy
same,TMRM staining (mitochondrial membrane potential),[3],did not block TMRM staining
same,elongation of mitochondria,[4],did not induce the elongation of mitochondria significantly
same,mitochondrial morphology,[5],failed to change the mitochondrial morphology
same,cardiac output,[6],similar; also recorded: does not appear to impact cardiac output
same,ejection fraction (EF),[6],similar; also recorded: minimal differences
same,left ventricular posterior wall thickness (LVPWs),[6],similar; also recorded: does not appear to impact
same,safety / tolerability in mice,[7],appears to be safe in mice
same,doxorubicin-induced cell death (percent survival of hiPSC-CMs),[8],reduces doxorubicin-induced cell death
